Patent publication US20230381168A1, “ADJUNCTIVE THERAPY FOR DEPRESSION” (ANeuroTech IP BV, priority 2020, published 2023)
“Also recorded” adds a separate entry of the source.

What was measured:
[1] = test system: patients suffering from moderate to severe MDD; assay: double-blind randomized multi-centre study, reported side effects (treatment emergent adverse effects); type: in vivo, human
[2] = test system: participants with major depressive disorder on continuing SSRI/SNRI; assay: placebo-controlled crossover study, Karolinska Sleepiness Scale; type: in vivo, human
Protocol: Participants randomized to receive Treatment B were administered placebo containing drinkable water with […] flavor. Each study week the participants received 10 mL of their study medication in an amber glass bottle with dropper containing 200 droplets. […] The sleepiness of the participants was also be measured using the Karolinska Sleepiness Scale going from very sleepy, having great difficulty staying awake, fighting sleep (9) to extremely alert (1). This questionnaire was completed in the morning, midday and evening.

[3] = test system: subject with medical history of major depression and severe insomnia; assay: sleep analysis with full PSG battery (EEG, EMG, infra-red video and sound): clinical relevant restlessness events; type: in vivo, human; conditions: PT1, after 3 weeks pipamperone 20 mg/day with tDCS
From the text: While during sleep the subject had no own noise making behaviour with an observed stable background noise level of +/−40 dB in the room, during these events the subject produced clear-cut enhancement of noise in the room with acute values of more than 50 dB combined with observable muscle activity (as observed by the EMG pattern), a state of being awake (as observed by the EEG) and an agitated behaviour (as observed by the clinical inspection infra-red video images).

[4] = test system: participants with major depressive disorder on continuing SSRI/SNRI; assay: placebo-controlled crossover study, sleep quality questionnaire; type: in vivo, human; conditions: all participants; 14 mg
Protocol: Participants randomized to receive Treatment B were administered placebo containing drinkable water with […] flavor. Each study week the participants received 10 mL of their study medication in an amber glass bottle with dropper containing 200 droplets. […] The sleep quality of the participants was measured using a scale going from very bad (1) to excellent (5). This questionnaire was only completed in the morning.

[5] = test system: participants with major depressive disorder on continuing SSRI/SNRI; assay: placebo-controlled crossover study, PROMIS cognitive function questionnaire (subjective cognitive function); type: in vivo, human
Protocol: Eligible participants were admitted to the study center on Day 1 of Period 1 for first dosing. […] The cognitive function was measured using the PROMIS cognitive function questionnaire, completed in the morning, midday and evening. […] A higher T-score reflects a better cognitive functioning of the participant. […] Positive responders were further evaluated for the key secondary objective.

H1 receptor = H1 receptor (Homo sapiens, UniProt P35367); conditions: cited from earlier work
H1 receptor, sequence (P35367 whole entry): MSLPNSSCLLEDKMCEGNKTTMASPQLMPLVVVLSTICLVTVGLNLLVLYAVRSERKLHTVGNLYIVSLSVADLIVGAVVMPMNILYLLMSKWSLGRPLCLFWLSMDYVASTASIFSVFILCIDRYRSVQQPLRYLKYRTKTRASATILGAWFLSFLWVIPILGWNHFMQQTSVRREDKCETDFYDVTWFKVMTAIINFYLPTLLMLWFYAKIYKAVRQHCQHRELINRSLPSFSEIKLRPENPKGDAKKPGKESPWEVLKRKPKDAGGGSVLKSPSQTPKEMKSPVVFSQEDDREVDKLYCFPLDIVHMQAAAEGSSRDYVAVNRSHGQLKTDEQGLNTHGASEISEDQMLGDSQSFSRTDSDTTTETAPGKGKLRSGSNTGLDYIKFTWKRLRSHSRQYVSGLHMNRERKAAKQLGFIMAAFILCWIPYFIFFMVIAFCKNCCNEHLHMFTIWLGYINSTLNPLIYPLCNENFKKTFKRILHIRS

[6] = test system: patients suffering from moderate to severe MDD; assay: double-blind randomized multi-centre study, MADRS assessed by the clinical rater; type: in vivo, human
Protocol: Cognitive enhancement and suicidal thoughts were evaluated respectively according to the Montgomery-Asberg Depression Rating Scale (MADRS) item 6 and item 10, after 10 weeks of study treatment as assessed by the clinical rater. […] Remission rate of reduced ability to read/communicate is defined as a MADRS Item 6 total score at Baseline (Day 1)>3 to (end of) Week 10≤3 at Week 10 as assessed by the clinical rater. […] Change from baseline in total score on MADRS after the indicated period of study treatment as assessed by the clinical rater. […] Remission is defined as a MADRS total score ≤10 at the indicated period as assessed by the clinical rater. An international, double-blind, centrally randomized (stratified), multi-centre study in more than 400 patients suffering from moderate to severe MDD in up to 40 sites in the USA was conducted. […] Study visits were conducted 1, 2, 3, 4, 6, 8 and 10 weeks after study treatment initiation. Possible withdrawal effects were assessed 1 week after study treatment withdrawal. After 2, 3, 4, 6, and 10 weeks, patients were evaluated.

[7] = test system: participants with major depressive disorder on continuing SSRI/SNRI; assay: placebo-controlled crossover study, PROMIS Sleep-related impairments questionnaire; type: in vivo, human
Protocol: Participants randomized to receive Treatment B were administered placebo containing drinkable water with […] flavor. Each study week the participants received 10 mL of their study medication in an amber glass bottle with dropper containing 200 droplets. […] The sleep-related impairments were assessed using the PROMIS Sleep-related impairments questionnaire, completed in the morning, midday and evening. […] A higher T-score reflects more sleep-related impairments during the day.

[8] = test system: MDD patients on antidepressant (partial responsive depression); assay: analysis of 62 MDD patients treated with adjunctive low-dose pipamperone; type: in vivo, human
[9] = test system: subjects with a medical history of major depressive disorder and current insomnia; assay: cognitive performance by Mini Mental State Examination (MMSE) in treated case subjects PT1-PT3; type: in vivo, human
Protocol: During the last three weeks of this period, the subject was treated with transcranial anodal direct current stimulation (tDCS) in daily sessions of 30 minutes in the morning every day of the week except Saturday and Sunday. The tDCS dose was 2 mA. The anode was placed over the left dorsolateral prefrontal cortex and the cathode was placed over the right dorsolateral prefrontal cortex. […] This combined treatment was continued for a following 3 weeks.

mACh receptors = conditions: cited from earlier work
D4 receptor = molecular target: T1, D4 receptor (Homo sapiens, UniProt P21917); conditions: cited from earlier work
T1 sequence (P21917 1-419): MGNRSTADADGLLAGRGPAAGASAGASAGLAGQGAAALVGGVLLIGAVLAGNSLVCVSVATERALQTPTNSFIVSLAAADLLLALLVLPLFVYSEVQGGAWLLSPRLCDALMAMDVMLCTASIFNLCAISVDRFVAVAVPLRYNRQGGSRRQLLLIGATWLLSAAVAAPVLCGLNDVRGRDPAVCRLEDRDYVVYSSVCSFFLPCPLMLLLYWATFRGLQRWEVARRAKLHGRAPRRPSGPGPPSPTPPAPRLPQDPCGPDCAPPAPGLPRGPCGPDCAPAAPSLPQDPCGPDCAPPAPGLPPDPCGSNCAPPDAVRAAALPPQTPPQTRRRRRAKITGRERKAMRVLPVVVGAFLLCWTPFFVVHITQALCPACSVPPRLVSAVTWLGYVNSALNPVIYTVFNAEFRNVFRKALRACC

[10] = test system: participants with major depressive disorder on continuing SSRI/SNRI; assay: placebo-controlled crossover study, mood questionnaire; type: in vivo, human
Protocol: Participants randomized to receive Treatment B were administered placebo containing drinkable water with […] flavor. Each study week the participants received 10 mL of their study medication in an amber glass bottle with dropper containing 200 droplets. […] The mood of the participants was also be measured using a questionnaire which evaluated going from very happy, relaxed, excited, not worried and fearful at all (1) to very sad, not relaxed and excited at all, extremely worried and fearful (5). This questionnaire was completed in the morning and in the evening.

[11] = prematurely discontinued patients
[12] = in particular after 6 weeks, even more so after 10 weeks

## CN(C)CCCC1(c2ccc(F)cc2)OCc2cc(C#N)ccc21 (stereo not shown) [Citalopram, citalopram]
[1]; all patients
  Decreased Appetite: 5.7%
  Diarrhoea: 9.7%
  Nausea: 16%
  Somnolence: 11.4%
[1]; [11]
  Decreased Appetite: 9%
  Diarrhoea: 11%
  Nausea: 18%
  Somnolence: 16%
  Vomiting: 9%

## NC(=O)C1(N2CCCCC2)CCN(CCCC(=O)c2ccc(F)cc2)CC1 [pipamperone, 1′-[3-(p-fluorobenzoyl)propyl]-[1,4′-bipiperidine]-4′-carboxamide]
[2]
  Karolinska Sleepiness Scale, pipamperone 14 mg vs placebo: no clear difference
[3]
  insomnia: improvement
  reduction of the clinical restlessness events: 75%
[3]; 4 before
  number of clinical restlessness events at night after treatment: 1
[4]
  sleep quality compared with placebo: better quality of sleep
[5]; 14 mg ad noctum add-on, 6 participants
  SUBJECTIVE COGNITIVE DECLINE: NON RESPONDER: 17%
[5]; 14 mg ad noctum add-on, 6 participants, Fisher exact test 0.0006, p<0.05
  SUBJECTIVE COGNITIVE DECLINE: RESPONDER: 50%
[5]; 14 mg, 14 days, add-on to SSRI/SNRI
  subjective cognitive function versus placebo: statistical significant (p<0.05) improvement
[5]; the two participants with high MADRS item 6 score (XR0 and WL4), 14 mg
  improvement of cognitive functioning compared with placebo: highest improvement
H1 receptor
  affinity for the H1 receptor: low and likely insignificant
[6]; after 10 weeks of treatment
  cognitive enhancement rate (remission of reduced ability to read/communicate, MADRS item 6) compared to citalopram: superior
[6]; after 10 weeks, 15 mg QD
  cognitive function (MADRS item 6, change from baseline) compared to citalopram: Statistically significant superior effect; also recorded: statistically significant enhancement
  suicidal thoughts (MADRS item 10, change from baseline) compared to citalopram: Statistically significant superior effect; also recorded: significant reduction
[6]; [12]
  decrease of severity of major depressive disorder (MADRS total score) compared to citalopram: superior decrease
  proportion of patients in remission of major depressive disorder (MADRS total score ≤10) compared to citalopram: superior increase
[7]
  Sleep-related impairments, pipamperone 14 mg vs placebo: no clear difference
[8]; adjunctive 15 mg daily, MDD remittors
  residual symptoms anhedonia and cognitive impairment: resolved
[8]; after at least more than 1 year of treatment, n=53 of 62
  patients still responding to adjunctive treatment: 85%
[8]; long-term adjunctive treatment
  tolerability of the treatment: extremely good tolerability
[8]; printed as 'of these responders', n=25
  patients in sustained remission: 40%
[8]; switched from quetiapine, amisulpride, risperidone or clozapine
  cases that went into sustained remission after switch from existing adjunctive treatment: 6 out of these 8 cases
[9]; PT1, after 3 weeks pipamperone 20 mg/day combined with 15 sessions tDCS 2 mA, 27 before treatment
  MMSE score: 30
[9]; PT1, another 2 months after tDCS was terminated, pipamperone 20 mg/d continued
  MMSE total score: 30 /30
[9]; PT2 (severe cognitive deterioration, 18/30 before), after 6 weeks of treatment
  MMSE: 17 /30
[9]; PT3 (28/30 before), after treatment
  MMSE: 30 /30
[9]; PT3, continuous (6 months) intake of low dose pipamperone
  restored cognitive performance: sustained
mACh receptors
  affinity for the mACh receptors: low and likely insignificant
D4 receptor
  affinity for the D4 receptor over the D2 receptor: 15 fold
[10]
  Mood, pipamperone 14 mg vs placebo: no clear difference
[1]; all patients
  Decreased Appetite: 1.6%
  Diarrhoea: 0.5%
  Nausea: 7.7%
  Somnolence: 6.6%
[1]; all patients and prematurely discontinued patients
  side effects overall (treatment emergent adverse effects, TEAE) compared to citalopram: low amount of side effects
[1]; [11]
  Decreased Appetite: 0%
  Diarrhoea: 0%
  Nausea: 6%
  Somnolence: 8%
  Vomiting: 0%
  side effects in subjects who discontinued the trial prematurely: significantly fewer side effects
